Experimental data: patent US20250108070A1, “METHOD FOR REPROGRAMMING CD8+ T CELLS TO ENHANCE THEIR THERAPEUTIC POTENTIAL AND APPLICATIONS THEREOF” (INSTITUT PASTEUR, priority 2022, published 2025)

What was measured:
[1] = tested on: mTORC1 and mTORC2 pathways; test: Screening of GSK3 inhibitors: phospho-S6 / phospho-AKT staining (activation of mTORC1 and mTORC2 pathways); type: cell-based, human; details: FIG. 12A, in words
Experimental: (§1) FIG. 12. Screening molecules for reprogramming human CD8^+ T cells Total CD8^+ T cells were purified and treated for 12 hs with titrated doses of GSK3 inhibitors or DMSO vehicle control. After drug washout, cells were stimulated for 48 hs with plate-bound anti-CD3/anti-CD28 antibodies (at 1 mg/mL), followed by flow cytometry analyses. A. Upon stimulation, intracellular cytokine and phospho-protein staining was performed, the latter for the detection of phospho-S6 and phospho-AKT proteins (indicative of activation of mTORC1 and mTORC2 pathways, respectively). The fold change in the frequency of IFN-γ^+TNF-α^+ and pS6^+pAKT^+ cells induced by the treatment with each GSK3 inhibitor, relative to DMSO control, was analyzed. […] B. Fold change in the expression of the indicated markers and memory phenotypes induced by anti-CD3/anti-CD28 antibody stimulation relative to unstimulated cells (at least 3 donors per condition). TCM: T central memory; TEM: T effector memory; TTM: T transitional memory; TTE: T terminal effector; TSCM: T stem cell memory.
(§2) For reprogramming of CD8^+ T cells followed by polyclonal stimulation, cells were isolated by negative magnetic bead sorting (Stemcell Technologies). For reprogramming of CD8^+ T cells followed by antigen-specific stimulation, PBMC and magnetically separated CD8^+ T cells and non-CD8^+ T cells were used (REAlease® CD8 MicroBead Kit; Miltenyi Biotech). Then, CD8^+ T cells were treated with a GSK3 inhibitor (6-Bromoindirubin-3′-oxime; BIO; Sigma-Aldrich), at 3 μM, or an equivalent concentration of dimethyl sulfoxide (DMSO) vehicle control, in complete medium, for 12 hs at 37° C., 5% CO2. Non-CD8 cells were left resting during this time in complete medium. CD8^+ T cells were washed with complete medium and stimulated with the peptide pool in presence of non-CD8 T cells.
(§3) In some experiments, cells were culture in RPMI medium without glucose (MP Biomedicals). CD8^+ T cell proliferation was evaluated by CFSE dilution (at 1 μM, Thermo Fisher Scientific). In additional experiments, reprogrammed CD8^+ T cells were stimulated with IL-7 or IL-15 (both at 10 ng/mL; R&D) and cultured for 6 days. In all the cases, cells were cultured at a density of 2×10^6 cells/mL.
(§4) After cultures, cells were stained with the LIVE/DEAD Fixable Aqua Dead Cell Stain kit (Thermo Fisher Scientific), with anti-CD3 Alexa Fluor 700 or APC efluor 780 and anti-CD8 PE Texas Red antibodies, accordingly. […] In some experiments, cells were stained with APC-conjugated dextramers (Immudex), incubated for 15 minutes at room temperature. Additional surface staining panels included anti-HLA-DR Superbright 780, anti-CD38 Superbright 600, anti-PD-1 BV421, anti-LAG-3 APC efluor 780, anti-TIM3 PE Cy7, and anti-TIGIT BV786 antibodies, or anti-CD122 PE and anti-CD215 FITC antibodies. The BD Transcription Factor Buffer Set kit (BD Biosciences) was used for cell fixation and permeabilization. […] Cell acquisition was performed using LSR II or ARIA III flow cytometers (both from BD Biosciences), and data were analyzed with FlowJo v.10 software (BD Biosciences).
(§5) The inventors explored GSK3 inhibitors to expand the array of molecules that could be used for CD8^+ T cell reprogramming. They implemented a screening approach that combined the evaluation of cytokine polyfunctionality of CD8^+ T cells (IFN-γ+TNFα+) vs the activation of mTORC1 and mTORC2 pathways (pS6+pAKT+) upon treatment with the GSK3 inhibitors and subsequent polyclonal stimulation.

human CD8+ T cells [2] = test: Screening of GSK3 inhibitors: cytokine polyfunctionality (IFN-γ+TNF-α+) of CD8+ T cells after anti-CD3/anti-CD28 stimulation; type: cell-based; details: FIG. 12A, in words
Experimental: as §1, §2, §3, §4, §5

human CD8+ T cells [3] = test: Screening of GSK3 inhibitors: markers and memory phenotypes by flow cytometry; type: cell-based; details: FIG. 12B, in words
Experimental: as §1, §2, §3, §4

In the case of O=C1Nc2cc(Br)ccc2/C1=C1/Nc2ccccc2/C1=N\O [BIO, 6-bromoindirubin-3′-oxime], the “frequency of pS6+pAKT+ cells / activation of mTORC pathway” value [1] is reported as “lower frequency”, the “IFN-γ+TNF-α+ cells (polyfunctionality) relative to vehicle control” value (human CD8+ T cells [2]) is reported as “promoted” and the “CD127+ T-bet− phenotype” value (human CD8+ T cells [3]) is reported as “preserved”. For the same compound, the “acquisition of T-bet, HLA-DR and CD38, PD-1 and LAG-3” value (human CD8+ T cells [3]) was “restrained” and the “phenotype / profile promoted in CD8+ T cells” value (human CD8+ T cells [3]) was “promoted a less-differentiated phenotype”.
